Assay results published in ChEMBL document CHEMBL1201862, “PubChem BioAssay data set” (2004).
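Five compound concentrations were applied to cells in 96-well plates for 48 hours; endpoints were derived by simple linear interpolation of the resulting dose-response curve. Abbreviation: GI50, concentration required for 50% inhibition of growth.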 The source made the active and inactive calls. No stated cut-off is given here; in the data, active = GI50 up to about 1.1 µM and inactive = higher.

Key:
Experiment in all cases: NCI anticancer screen, dose series, 48 h
786-0 = system: 786-0
A498 = system: A498
A549 = system: A549
ACHN = system: ACHN
BT-549 = system: BT-549
CAKI-1 = system: CAKI-1
COLO 205 = system: COLO 205
DU-145 = system: DU-145
EKVX = system: EKVX
HCC 2998 = system: HCC 2998
HCT-116 = system: HCT-116
HCT-15 = system: HCT-15
HOP-62 = system: HOP-62
KM12 = system: KM12
M14 = system: M14
MDA-MB-231 = system: MDA-MB-231
MDA-N = system: MDA-N
NCI-H226 = system: NCI-H226
NCI-H460 = system: NCI-H460
NCI/ADR-RES = system: NCI/ADR-RES
OVCAR-3 = system: OVCAR-3
OVCAR-4 = system: OVCAR-4
OVCAR-5 = system: OVCAR-5
OVCAR-8 = system: OVCAR-8
PC-3 = system: PC-3
SF-295 = system: SF-295
SF-539 = system: SF-539
SK-MEL-28 = system: SK-MEL-28
SK-MEL-5 = system: SK-MEL-5
SN12C = system: SN12C
SNB-19 = system: SNB-19
SNB-75 = system: SNB-75
SR = system: SR
SW-620 = system: SW-620
U-251 = system: U-251
UACC-257 = system: UACC-257
UACC-62 = system: UACC-62
UO-31 = system: UO-31
CCRF-CEM = system: CCRF-CEM
HL-60 = system: HL-60
HOP-92 = system: HOP-92
HT-29 = system: HT-29
Hs-578T = system: Hs-578T
IGROV-1 = system: IGROV-1
K562 = system: K562
LOX IMVI = system: LOX IMVI
MCF7 = system: MCF7
MDA-MB-435 = system: MDA-MB-435
MOLT-4 = system: MOLT-4
Malme-3M = system: Malme-3M
NCI-H23 = system: NCI-H23
NCI-H522 = system: NCI-H522
RPMI-8226 = system: RPMI-8226
RXF 393 = system: RXF 393
SF-268 = system: SF-268
SK-MEL-2 = system: SK-MEL-2
SK-OV-3 = system: SK-OV-3
T47D = system: T47D
TK-10 = system: TK-10

Structure (SMILES): CC1=CCC[C@H]2[C@](C)(CC3=CC(=O)C(Sc4ccccc4)=CC3=O)[C@@H](C)CC[C@]12C
- GI50 (786-0): 18.2 µM (inactive)
- GI50 (A498): 19.9 µM (inactive)
- GI50 (A549): 17.5 µM (inactive)
- GI50 (ACHN): 19.2 µM (inactive)
- GI50 (BT-549): 19.5 µM (inactive)
- GI50 (CAKI-1): 17.1 µM (inactive)
- GI50 (COLO 205): 14.5 µM (inactive)
- GI50 (DU-145): 22.5 µM (inactive)
- GI50 (EKVX): 20.2 µM (inactive)
- GI50 (HCC 2998): 20.4 µM (inactive)
- GI50 (HCT-116): 16.6 µM (inactive)
- GI50 (HCT-15): 19.2 µM
- GI50 (HOP-62): 16.9 µM (inactive)
- GI50 (KM12): 41.6 µM (inactive)
- GI50 (M14): 16.7 µM (inactive)
- GI50 (MDA-MB-231): 21.4 µM (inactive)
- GI50 (MDA-N): 18.5 µM (inactive)
- GI50 (NCI-H226): 14.7 µM (inactive)
- GI50 (NCI-H460): 20 µM (inactive)
- GI50 (NCI/ADR-RES): 17.1 µM (inactive)
- GI50 (OVCAR-3): 16.6 µM (inactive)
- GI50 (OVCAR-4): 19.7 µM (inactive)
- GI50 (OVCAR-5): 17.1 µM (inactive)
- GI50 (OVCAR-8): 13.6 µM (inactive)
- GI50 (PC-3): 23 µM (inactive)
- GI50 (SF-295): 17.3 µM (inactive)
- GI50 (SF-539): 19.8 µM (inactive)
- GI50 (SK-MEL-28): 20.9 µM (inactive)
- GI50 (SK-MEL-5): 17.2 µM (inactive)
- GI50 (SN12C): 17.7 µM (inactive)
- GI50 (SNB-19): 20.5 µM (inactive)
- GI50 (SNB-75): 20.4 µM (inactive)
- GI50 (SR): 21.8 µM (inactive)
- GI50 (SW-620): 16.9 µM (inactive)
- GI50 (U-251): 18.1 µM (inactive)
- GI50 (UACC-257): 15.9 µM (inactive)
- GI50 (UACC-62): 21.7 µM (inactive)
- GI50 (UO-31): 15.7 µM (inactive)

Structure (SMILES): O=C1NN(c2ccccc2)C(=O)C2C3c4ccccc4C(c4ccccc43)C12 (stereo not given)
- GI50 (786-0): > 100 µM (inactive)
- GI50 (A498): 32.2 µM (inactive)
- GI50 (A549): > 100 µM (inactive)
- GI50 (ACHN): > 100 µM (inactive)
- GI50 (CAKI-1): > 100 µM (inactive)
- GI50 (CCRF-CEM): 22.5 µM (inactive)
- GI50 (COLO 205): 78.2 µM (inactive)
- GI50 (DU-145): > 100 µM (inactive)
- GI50 (EKVX): > 100 µM (inactive)
- GI50 (HCC 2998): 6.64 µM (inactive)
- GI50 (HCT-116): 75 µM (inactive)
- GI50 (HCT-15): 89.1 µM
- GI50 (HL-60): > 10 µM (inactive)
- GI50 (HOP-62): 56.8 µM (inactive)
- GI50 (HOP-92): > 100 µM (inactive)
- GI50 (HT-29): 32.7 µM (inactive)
- GI50 (Hs-578T): 83.2 µM (inactive)
- GI50 (IGROV-1): > 100 µM (inactive)
- GI50 (K562): 43.2 µM (inactive)
- GI50 (KM12): > 100 µM (inactive)
- GI50 (LOX IMVI): > 100 µM (inactive)
- GI50 (M14): > 100 µM (inactive)
- GI50 (MCF7): 44.2 µM (inactive)
- GI50 (MDA-MB-231): 41 µM (inactive)
- GI50 (MDA-MB-435): > 100 µM (inactive)
- GI50 (MDA-N): > 100 µM (inactive)
- GI50 (MOLT-4): 6.22 µM (inactive)
- GI50 (Malme-3M): 85.1 µM (inactive)
- GI50 (NCI-H226): > 100 µM (inactive)
- GI50 (NCI-H23): > 100 µM (inactive)
- GI50 (NCI-H460): > 100 µM (inactive)
- GI50 (NCI-H522): 49.1 µM (inactive)
- GI50 (NCI/ADR-RES): > 100 µM (inactive)
- GI50 (OVCAR-3): > 100 µM (inactive)
- GI50 (OVCAR-4): 60 µM (inactive)
- GI50 (OVCAR-5): > 10 µM (inactive)
- GI50 (OVCAR-8): > 100 µM (inactive)
- GI50 (PC-3): 24.3 µM (inactive)
- GI50 (RPMI-8226): > 100 µM (inactive)
- GI50 (RXF 393): 41.1 µM (inactive)
- GI50 (SF-268): > 100 µM (inactive)
- GI50 (SF-295): 80 µM (inactive)
- GI50 (SF-539): > 100 µM (inactive)
- GI50 (SK-MEL-28): > 100 µM (inactive)
- GI50 (SK-MEL-2): > 100 µM (inactive)
- GI50 (SK-MEL-5): > 100 µM (inactive)
- GI50 (SK-OV-3): > 100 µM (inactive)
- GI50 (SN12C): 77.1 µM (inactive)
- GI50 (SNB-19): > 100 µM (inactive)
- GI50 (SNB-75): 26.1 µM (inactive)
- GI50 (SR): > 100 µM (inactive)
- GI50 (SW-620): > 100 µM (inactive)
- GI50 (T47D): 44.4 µM (inactive)
- GI50 (TK-10): > 100 µM (inactive)
- GI50 (U-251): > 100 µM (inactive)
- GI50 (UACC-257): 27.6 µM (inactive)
- GI50 (UACC-62): > 100 µM (inactive)
- GI50 (UO-31): > 100 µM (inactive)

Structure (SMILES): CSc1cc(Cl)c(C)cc1S(=O)(=O)NC(=O)NNc1ccc(Cl)cc1
- GI50 (786-0): > 100 µM (inactive)
- GI50 (A498): > 100 µM (inactive)
- GI50 (A549): > 100 µM (inactive)
- GI50 (ACHN): 47.3 µM (inactive)
- GI50 (CAKI-1): 94.6 µM (inactive)
- GI50 (COLO 205): > 100 µM (inactive)
- GI50 (DU-145): > 100 µM (inactive)
- GI50 (EKVX): > 100 µM (inactive)
- GI50 (HCC 2998): 36.2 µM (inactive)
- GI50 (HCT-116): > 100 µM (inactive)
- GI50 (HCT-15): > 100 µM
- GI50 (HOP-62): > 100 µM (inactive)
- GI50 (HT-29): > 100 µM (inactive)
- GI50 (Hs-578T): 34.1 µM (inactive)
- GI50 (IGROV-1): > 100 µM (inactive)
- GI50 (K562): > 100 µM (inactive)
- GI50 (KM12): > 100 µM (inactive)
- GI50 (LOX IMVI): > 100 µM (inactive)
- GI50 (M14): > 100 µM (inactive)
- GI50 (MCF7): > 100 µM (inactive)
- GI50 (MDA-MB-231): > 100 µM (inactive)
- GI50 (MDA-MB-435): > 100 µM (inactive)
- GI50 (MDA-N): > 100 µM (inactive)
- GI50 (MOLT-4): 46.6 µM (inactive)
- GI50 (Malme-3M): > 100 µM (inactive)
- GI50 (NCI-H226): 56 µM (inactive)
- GI50 (NCI-H460): > 100 µM (inactive)
- GI50 (NCI-H522): 70.3 µM (inactive)
- GI50 (NCI/ADR-RES): > 100 µM (inactive)
- GI50 (OVCAR-3): > 100 µM (inactive)
- GI50 (OVCAR-4): > 100 µM (inactive)
- GI50 (OVCAR-5): > 100 µM (inactive)
- GI50 (OVCAR-8): > 100 µM (inactive)
- GI50 (PC-3): 80.5 µM (inactive)
- GI50 (RXF 393): 99.1 µM (inactive)
- GI50 (SF-268): > 100 µM (inactive)
- GI50 (SF-295): > 100 µM (inactive)
- GI50 (SF-539): 40.1 µM (inactive)
- GI50 (SK-MEL-28): > 100 µM (inactive)
- GI50 (SK-MEL-2): > 100 µM (inactive)
- GI50 (SK-MEL-5): 69.5 µM (inactive)
- GI50 (SK-OV-3): > 100 µM (inactive)
- GI50 (SN12C): > 100 µM (inactive)
- GI50 (SNB-19): > 100 µM (inactive)
- GI50 (SNB-75): > 100 µM (inactive)
- GI50 (SR): 70 µM (inactive)
- GI50 (SW-620): > 100 µM (inactive)
- GI50 (T47D): > 100 µM (inactive)
- GI50 (U-251): > 100 µM (inactive)
